Literature values, collected in patent publication US8039024B2, “Device and composition for the delivery of a preservative-free balsamic cream” (APR Applied Pharma Research, S.A., priority 2008, dated 2011).

Details: sprayed directly onto the nasal mucosa of dogs and humans

For `CC12CCC(CC1=O)C2(C)C` (centres unmarked) [camphor, Camphor], the decongestant action is listed as “no decongestant action”.
For `CC1CCC(C(C)C)C(O)C1` (centres unmarked) [menthol, Menthol], the decongestant action is given as “no decongestant action”.
